The target of experiment [1] is T1, recombinant purified m3MST (Mus musculus, UniProt Q99J99).
T1 construct: made in house; host or cells: E. coli BL21
T1 sequence (Q99J99 1-297): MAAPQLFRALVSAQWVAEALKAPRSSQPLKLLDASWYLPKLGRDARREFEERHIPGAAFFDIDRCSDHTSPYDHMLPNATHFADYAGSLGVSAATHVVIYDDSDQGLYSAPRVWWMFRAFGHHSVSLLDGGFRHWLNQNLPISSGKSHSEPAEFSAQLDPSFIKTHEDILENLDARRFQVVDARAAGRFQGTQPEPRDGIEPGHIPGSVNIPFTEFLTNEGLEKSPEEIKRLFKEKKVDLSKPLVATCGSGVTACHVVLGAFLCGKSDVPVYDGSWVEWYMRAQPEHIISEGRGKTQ
In words: Inhibitory activity toward purified m3MST by gas chromatography. Format: biochemical. As to conditions: 10 μM compound; 50 μM 3MP, 40 μM DTT; room temperature 3 hr; mean±S.D. n = 2; read-out: Inhibitory activity toward recombinant purified m3MST (H2S production by gas chromatography). Here is the method:
1 μL of 1 mM compound (final 10 μM) was diluted with 89 μL of 3MST solution (final 3.8 μg/mL) or GST solution (2.2 μg/mL) in 30 mM HEPES buffer (pH 7.4) in a 30 mL collection vial (Iwaki). 10 μL of 3MP and DTT solution (final concentration: 50 μM 3MP and 40 μM DTT) was added to 90 μL of the mixture, then the vial was sealed with parafilm and incubated at room temperature for 3 hr. After addition of 200 μL of 1 M sodium citrate buffer (pH 6.0), the mixture was incubated at 37 °C for at least 10 minutes with shaking on rotary shaker to quench the enzymatic activity and facilitate release of H2S gas from the aqueous phase. A 2 mL sample of head-space gas (total, approximately 29.5 mL) was applied to a gas chromatograph (ODSA-P2, Alpha M.O.S. Japan). The concentrations of H2S were determined from a standard curve obtained with 0 to 4 nmol of Na2S, which is a source of H2S. The protocol is illustrated in Supplementary Fig. 9.
Compound Inhibitory activity
All data are presented as the mean±S.D. (n = 2).
Supplementary Figure S9. (a) Schematic illustration of 3MST inhibitor assay by gas chromatography. (b) Inhibitory activity toward recombinant purified m3MST. Conditions: Mixtures of 10 μM test compound, 3.8 μg/mL 3MST or 2.2 μg/mL GST, 50 μM 3MP, 40 μM DTT, and 1% (v/v) DMSO in 30 mM HEPES buffer (pH 7.4) were incubated at room temperature for 3 hr.
(1 picture or pasted object on this page, not shown here)

Experiment [2] addresses T2, recombinant CSE (Rattus norvegicus, UniProt P18757).
T2 construct: GST (N, cleaved yes); made in house; host or cells: E. coli DH5α
In words: Inhibitory activity towards purified CSE by gas chromatography. The experiment is classed as biochemical. As to conditions: 100 μM compound, 10 mM L-cysteine. Here is the method:
Figure 2 Selectivity assessment of hit compounds for 3MST over other H2S/polysulfides-producing enzymes and rhodanese. (a) 3MST-Inhibitory activity of hit compounds at 10 and 100 μM in cell lysate of 3MST-expressing HEK293 cells. 100 μM 3MP and 100 μM DTT were added to the solution containing 0.1% DMSO as a cosolvent, and the mixture was incubated at 37 °C for 15 min. H2S production was measured by gas chromatography. All data are presented as the mean ± S.D. (100 μM: n = 3 or 4; 10 μM: n = 3). (b) Selectivity assessment of hit compounds at 100 μM towards CBS and CSE. Only DMSO was added to the control sample instead of DMSO solution containing hit compounds. H2S production was monitored by gas chromatography. All data are presented as the mean (n = 3). (c) Detection method for rhodanese activity (Sörbo method). (d) Selectivity assessment of hit compounds towards rhodanese. The results are mean ± S.D. (n = 4, three times). These values were determined based upon the absorbance of [Fe(SCN)3] at 460 nm (Sӧrbo method). Bovine rhodanese 1.3–1.7 units/mL, substrate: 52 mM Na2S2O3, 50 mM KCN, 0.004% (w/v) BSA, 100 μM compound and DMSO 1% (v/v) in 88 mM potassium phosphate buffer (pH 8.6) at room temperature for 5 min incubation. (e) Fluorescence confocal microscopic images of live COS7 cells transfected with 3MST or an empty vector[9] as a control. Cells were incubated with 50 μM SSP4, a fluorescent probe for sulfane sulfur, and 10 μM, 1 μM, 0.5 μM, 0.1 or 0 μM compound 3 in DMEM containing 0.6% DMSO for 30 min, then washed with HBSS and placed in fresh DMEM with 0‒10 μM compound 3 (Pre). 500 μM 3MP was added to the cells and the cells were incubated for 10 min (10 min). (f) Graphic representation of (e). F/F0 was calculated by dividing the fluorescence intensity of cells after addition of 500 μM 3MP (10 min) by that of cells before addition of 500 μM 3MP (Pre), then the mean F/F0 was determined from 5 cells. All data represent the mean ± standard error of the mean (SEM) of three experiments.
GST-tagged rat CSE-HA or rat CBS-HA was expressed in E. coli DH5α as follows. […]

With `NC(=O)c1ccsc1NC(=O)CSc1nc2ccccc2c(=O)[nH]1` [compound 1], the inhibition at 10 µM in experiment [1] worked out at 104 ± 2.7%. Besides, the inhibition at 100 µM in experiment [2] (read-out: Inhibition of recombinant CSE enzymatic activity (H2S production)) was around 25%. For `Cc1sc2nc(SCC(=O)c3ccc(O)cc3O)[nH]c(=O)c2c1C` [compound 2], the inhibition at 10 µM in experiment [1] was 93.4 ± 0.8%. Further, the “Inhibition of recombinant CSE enzymatic activity (H2S production)” value in experiment [2] is given as “enhanced H2S production”.

Consider `O=C(O)c1cccc(NS(=O)(=O)c2ccccc2)c1` [compound 5], for which, in experiment [1], the inhibition at 10 µM worked out at 90.9 ± 0.9%. Take `Cc1cc(=O)[nH]c(SCC(=O)c2cccc3ccccc23)n1` [compound 3]: the inhibition at 10 µM in experiment [1] was 90.3 ± 12%. Also, the “Inhibition of recombinant CSE enzymatic activity (H2S production)” value in experiment [2] was “almost inactive”.

For the origin of these results see publication PMC5228037, “Discovery and Mechanistic Characterization of Selective Inhibitors of H2S-producing Enzyme: 3-Mercaptopyruvate Sulfurtransferase (3MST) Targeting Active-site Cysteine Persulfide” (Scientific Reports, 2017).
